{
  "source": "patent US20030216413A1",
  "about": "“Catecholamine pharmaceutical compositions and methods” (priority 2000, published 2003)",
  "key": {"[1]": {"details": "daily injections of 1 mg/kg for seven days; cited from earlier work"}, "[2]": {"experiment": "Treatment of a patient with asthma (Examples 1-3)", "protocol": "A patient presents with asthma complicated by degenerative heart disease and has variously used 0.25% or 1% isoproterenol aerosols, 0.10-0.20 mg epinephrine-bitartrate inhalers, and 90 μg albuterol every day at 4-6 hour intervals. […] The subject is administered an aerosol composition comprising 0.075% isoproterenol and 1.0% ascorbic acid.\nA patient presents with asthma and has previously used 90 μg albuterol every day at 4-6 hour intervals. […] The subject is administered composition comprising 50 μg albuterol and […] morphine sulfate.\nA patient presents with asthma and has previously used a 0.20 mg/dose epinephrine bitartrate inhaler every day at 6 hour intervals. The subject is administered a composition delivering a unit dose comprising 0.03 mg epinephrine bitatrate and 0.2 mg EDTA from a conventional inhaler."}, "[3]": {"details": "1:100,000 sterile aqueous solution; cited from earlier work"}, "[4]": {"details": "1:1000 or 1:10,000 epinephrine in sterile aqueous solution; cited from earlier work"}, "[5]": {"details": "1:1000 to 1:10,000 solutions; cited from earlier work"}},
  "note": "Where a name gives a salt, the structure may show the parent alone.",
  "data": [
    {"smiles": "C[C@H](N)Cc1ccccc1", "note": "[D-amphetamine]", "values": [
      {"measurement": "side effects of the typical treatment", "setting": "[1]", "value": "Side effects often result"}
    ]},
    {"smiles": "CC(C)(C)NCC(O)c1ccc(O)c(CO)c1", "note": "(centres unmarked) [albuterol]", "values": [
      {"measurement": "adverse side effects", "setting": "[2]; human, in vivo", "value": "unacceptable side effects"},
      {"measurement": "control of asthma / symptom relief", "setting": "[2]; patient with asthma", "value": "not well controlled"}
    ]},
    {"smiles": "CNC[C@H](O)c1ccc(O)c(O)c1", "note": "[epinephrine hydrochloride]", "values": [
      {"measurement": "duration of beneficial effect of conventional treatment", "setting": "[3]", "value": "about 15 minutes"}
    ]},
    {"smiles": "CNC[C@H](O)c1ccc(O)c(O)c1", "note": "[epinephrine-bitartrate]", "values": [
      {"measurement": "adverse side effects", "setting": "[2]; human, in vivo", "value": "unacceptable side effects"}
    ]},
    {"smiles": "CNC[C@H](O)c1ccc(O)c(O)c1", "note": "[epinephrine]", "values": [
      {"measurement": "side effects of conventional formulations", "setting": "[4]", "value": "fear, anxiety, restlessness, and sleeplessness, dizziness and palpitations"},
      {"measurement": "duration of action of conventional treatment", "setting": "[5]", "value": "only a few minutes"}
    ]},
    {"smiles": "CC(C)NCC(O)c1ccc(O)c(O)c1", "note": "(centres unmarked) [isoproterenol]", "values": [
      {"measurement": "adverse side effects", "setting": "[2]; patient with asthma", "value": "unacceptable side effects"}
    ]}
  ]
}
